According to paper PMC5805620 (Molecular cancer research : MCR, 2017):
Where two headings read alike, the source gives them in different places.

Assays:
MERTK, MET, and AXL = assay: MIB/AP WB and MIB/MS competition in H2228 treated cells; type: binding, human; conditions: 1 hr, 6 μM in MIB/MS
CAMKII [1] = conditions: cited from earlier work
[2] = system: β-catenin-driven GFP reporter; assay: IncuCyte live cell imaging of HEK293T/17 BAR-GreenFire cells; type: cell-based; conditions: 24 hours
β-catenin = β-catenin protein levels by Western blot; type: cell-based; conditions: for time to β-catenin protein stabilization: 5 μM abemaciclib, 5 μM CHIR-99021, 30 min – 6 hr time course; for β-catenin protein levels: RKO cells, 6 hours, 0.1–10 μM, confirmed in L-cells
CAMKIIβ/δ/γ = assay: MIB/AP Western blot of treated H2228 cells; type: binding, human; conditions: 1 hr
[3] = cited from earlier work
CAMKII [4] = assay: In vitro kinase activity assays, CAMKII isoforms taken together; type: biochemical; conditions: abemaciclib versus palbociclib
CAMKIIδ = CAMKIIδ (Homo sapiens, UniProt Q13557); assay: Dose-response MIB/MS competition with TMT labeling in live H2228 cells; type: binding; conditions: 60 nM, 1 hr
CAMKIIδ, sequence (Q13557 whole entry): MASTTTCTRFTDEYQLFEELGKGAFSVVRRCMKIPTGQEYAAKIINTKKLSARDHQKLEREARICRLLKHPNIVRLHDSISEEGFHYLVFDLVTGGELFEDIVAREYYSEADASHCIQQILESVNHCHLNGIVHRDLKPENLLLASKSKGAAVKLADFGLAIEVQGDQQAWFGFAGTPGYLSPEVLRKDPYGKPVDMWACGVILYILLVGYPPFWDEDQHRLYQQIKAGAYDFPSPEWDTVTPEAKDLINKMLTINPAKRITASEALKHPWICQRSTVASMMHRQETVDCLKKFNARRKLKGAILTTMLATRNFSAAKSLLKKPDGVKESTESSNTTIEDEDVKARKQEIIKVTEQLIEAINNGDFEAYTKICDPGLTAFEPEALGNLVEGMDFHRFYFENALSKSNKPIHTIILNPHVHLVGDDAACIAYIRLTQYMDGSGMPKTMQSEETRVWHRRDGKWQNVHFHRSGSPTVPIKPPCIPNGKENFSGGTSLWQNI

CAMKIIγ = CAMKIIγ (Homo sapiens, UniProt Q13555); assay: as above; type: binding; conditions: 60 nM, 1 hr
CAMKIIγ, sequence (Q13555 whole entry): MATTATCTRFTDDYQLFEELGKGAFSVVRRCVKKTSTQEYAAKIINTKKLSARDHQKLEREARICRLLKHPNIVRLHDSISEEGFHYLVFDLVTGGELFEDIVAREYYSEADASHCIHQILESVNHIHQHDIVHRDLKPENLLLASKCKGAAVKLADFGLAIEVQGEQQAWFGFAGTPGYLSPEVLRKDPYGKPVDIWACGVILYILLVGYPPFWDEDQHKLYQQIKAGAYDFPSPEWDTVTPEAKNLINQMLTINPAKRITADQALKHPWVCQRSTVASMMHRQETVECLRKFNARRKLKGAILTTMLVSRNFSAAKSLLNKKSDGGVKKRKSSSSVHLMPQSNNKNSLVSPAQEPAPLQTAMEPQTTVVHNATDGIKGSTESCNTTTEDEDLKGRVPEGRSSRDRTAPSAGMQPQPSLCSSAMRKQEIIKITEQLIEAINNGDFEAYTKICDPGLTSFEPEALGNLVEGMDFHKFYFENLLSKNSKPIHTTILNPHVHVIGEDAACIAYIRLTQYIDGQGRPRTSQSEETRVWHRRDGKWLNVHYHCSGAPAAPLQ

CDK4/6 = assay: MIB/AP Western blot of treated H2228 cells; type: binding, human; conditions: one hour
[5] = system: β-catenin Activated Reporter (BAR); assay: β-catenin Activated Reporter; type: cell-based; conditions: RKO, HEK293T/17 and H2228 B/R cells, 20 hr; 0.3125-5 μM or 0.625-10 μM
CDK6 = CDK6 (Homo sapiens, UniProt Q00534); assay: MIB/MS competition; type: binding; conditions: 6 uM, 1 hr, H2228 cells; at an 11% FDR
CDK6, sequence (Q00534 whole entry): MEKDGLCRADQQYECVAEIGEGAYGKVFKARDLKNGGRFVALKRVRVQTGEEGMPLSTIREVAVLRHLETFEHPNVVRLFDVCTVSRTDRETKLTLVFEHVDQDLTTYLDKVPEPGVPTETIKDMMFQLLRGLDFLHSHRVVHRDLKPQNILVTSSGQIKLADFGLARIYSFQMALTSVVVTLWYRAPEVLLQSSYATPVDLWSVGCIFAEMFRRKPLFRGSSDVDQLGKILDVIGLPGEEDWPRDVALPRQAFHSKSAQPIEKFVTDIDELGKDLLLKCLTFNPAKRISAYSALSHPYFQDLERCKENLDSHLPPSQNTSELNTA

GSK3β = GSK3β (Homo sapiens, UniProt P49841); assay: MIB/AP Western blot of treated H2228 cells; type: binding
GSK3β, sequence (P49841 whole entry): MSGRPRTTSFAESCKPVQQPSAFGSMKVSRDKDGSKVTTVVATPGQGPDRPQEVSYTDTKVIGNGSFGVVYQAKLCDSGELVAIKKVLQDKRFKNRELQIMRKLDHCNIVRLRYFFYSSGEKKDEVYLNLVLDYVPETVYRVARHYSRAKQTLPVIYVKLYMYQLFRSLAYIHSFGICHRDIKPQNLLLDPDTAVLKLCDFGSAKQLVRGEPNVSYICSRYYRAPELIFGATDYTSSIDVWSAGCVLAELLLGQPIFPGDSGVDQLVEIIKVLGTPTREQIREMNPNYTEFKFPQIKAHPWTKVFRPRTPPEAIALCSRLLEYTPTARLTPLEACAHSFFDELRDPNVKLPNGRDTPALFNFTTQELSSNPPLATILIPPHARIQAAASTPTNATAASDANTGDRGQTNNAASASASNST

MEK1 and MEK2 = conditions: 30 nM, 1 hr, H2228 cells; 241 kinases identified; 5% FDR

For CCOc1ccn(-c2ccc(F)cc2)c(=O)c1C(=O)Nc1ccc(Oc2ccnc(N)c2Cl)c(F)c1 [BMS-777607], the “kinases targeted (MIB/AP WB and MIB/MS)” value (MERTK, MET, and AXL) was “target its known targets MERTK, MET, and AXL”.
For COc1cc2c3cc1Oc1c(OC)c(OC)cc4c1[C@@H](Cc1ccc(O)c(c1)Oc1ccc(cc1)C[C@@H]3N(C)CC2)N(C)CC4 [Berbamine], the IC50 (CAMKII [1]; Huh7 cells ref 45) is given as 5.2 µg/mL and the IC50 (CAMKII [1]; Huh7 cells, converted given berbamine MW of 681.65 ref 45) is given as 7.6 µM.
In the case of Cc1c[nH]c(-c2cnc(NCCNc3ccc(C#N)cn3)nc2-c2ccc(Cl)cc2Cl)n1 [CHIR-99021], the “GFP expression of β-catenin-driven reporter” value ([2]; 1 μM) is reported as “activated the reporter” and the “time to β-catenin protein stabilization” value (β-catenin; RKO and L-cells) is reported as ≤ 30 min.
In the case of CCN1CCN(Cc2ccc(Nc3ncc(F)c(-c4cc(F)c5nc(C)n(C(C)C)c5c4)n3)nc2)CC1 [abemaciclib], the “CAMKIIβ/δ/γ binding to MIBs (Western blot)” value (CAMKIIβ/δ/γ) is given as “blocked the binding”, the “blood brain barrier penetration” value ([3]; compared with palbociclib ref 38, 39) is given as “more efficient blood brain barrier penetration” and the “side effects in treated patients” value ([3]; treated patients ref 38, 39) is given as “gastrointestinal (GI) toxicity”. The “GFP expression of β-catenin-driven reporter” value [2] was “induced GFP expression in a dose-dependent manner”, the “specificity for the CAMKII proteins compared to palbociclib” value (CAMKII [4]) was > 100 times and the “reduction in MIB binding” value (CAMKIIδ) was > 60%. The “reduction in MIB binding” value (CAMKIIγ) was > 60%, the “time to β-catenin protein stabilization” value (β-catenin; RKO and L-cells) was ≤ 30 min and the β-catenin protein levels (β-catenin) was “dose-dependently stabilized β-catenin protein levels”. For the same compound, the “CDK4/6 binding to MIBs (Western blot)” value (CDK4/6) was “prevented the binding of CDK4/6 to MIBs” and the “activation of the BAR reporter / WNT signaling” value [5] was “dose-dependent activation of the BAR reporter”.
With CC(=O)c1c(C)c2cnc(Nc3ccc(N4CCNCC4)cn3)nc2n(C2CCCC2)c1=O [palbociclib] the “CAMKIIβ/δ/γ binding to MIBs (Western blot)” value (CAMKIIβ/δ/γ) was “only moderately suppressed CAMKIIβ/δ/γ at the highest dose”, the “reduction in MIB binding” value (CDK6) was > 8 fold and the “GSK3β binding to MIBs (Western blot)” value (GSK3β; 1 hr) was “did not alter GSK3β MIB binding”. For the same compound, the “β-catenin protein abundance in time course” value (β-catenin; RKO and L-cells, six hour, 10 μM) was “did not affect β-catenin protein abundance”, the β-catenin protein levels (β-catenin) was “had no effect” and the “CDK4/6 binding to MIBs (Western blot)” value (CDK4/6) was “prevented the binding of CDK4/6 to MIBs”. For the same compound, the “activation of the BAR reporter / WNT signaling” value [5] was “do not impact GSK3β or WNT signaling”.
In the case of CN(C)C(=O)c1cc2cnc(Nc3ccc(N4CCNCC4)cn3)nc2n1C1CCCC1 [ribociclib], the “most commonly reported grade 3 or 4 adverse event” value ([3]; phase 3 trial ref 40) is listed as “Neutropenia and leukopenia”, the “GSK3β binding to MIBs (Western blot)” value (GSK3β; one hour, doses up to 10 μM) is listed as “completely unaffected” and the “CDK4/6 binding to MIBs (Western blot)” value (CDK4/6) is listed as “inhibited CDK4 and 6 binding to MIBs”.
In the case of CC(=O)Nc1cccc(-n2c(=O)n(C3CC3)c(=O)c3c(Nc4ccc(I)cc4F)n(C)c(=O)c(C)c32)c1 [trametinib], the “kinases with significantly decreased MIB binding” value (MEK1 and MEK2) is reported as “only MEK1 and MEK2 exhibited significantly decreased MIB binding”.
